Laboratory results: US9637487B2, “Purinone compounds as kinase inhibitors” (Pharmacyclics LLC, priority 2013, dated 2017)

Biological target: Btk (Homo sapiens (Human), UniProt Q06187)
Test: Btk in vitro inhibitory activity (one of Method A TR-FRET, Method B mobility shift, Method C radiometric filter binding)
Format: biochemical
Conditions: determined using one of the methods outlined in Example 36a, 36b and 36c
Description: Btk kinase activity is determined using a time-resolved fluorescence resonance energy transfer (TR-FRET) methodology. Measurements are performed in a reaction volume of 50 μL using 96-well assay plates. […] The reaction is quenched by the addition of 1.2 equivalents of EDTA (relative to divalent cation) in 25 μL of 1× Lance buffer (Perkin-Elmer). […] The TR-FRET signal is measured on a multimode plate reader with an excitation wavelength (λEx) of 330 nm and detection wavelengths (λEm) of 615 and 665 nm. Activity is determined by the ratio of the fluorescence at 665 nm to that at 615 nm. For each compound, enzyme activity is measured at various concentrations of compound. Negative control reactions are performed in the absence of inhibitor in replicates of six, and two no-enzyme controls are used to determine baseline fluorescence levels Inhibition constants, Ki(app), ware obtained using the program BatchKi (Kuzmic et al. (2000), Anal. Biochem. 286:45-50). IC50s are obtained according to the equation: IC50={Ki(app)/(1+[ATP]/Km^ATP)}+[E]total/2;
Kinase activity is measured in vitro using electrophoretic mobility shift assay. The kinase reactions are assembled in a total volume of 25 μL in 384 well plates. […] The reaction is incubated for one hour and is quenched by the addition of 45 μL of termination buffer (100 mM HEPES, pH7.5, 0.01% Triton X-100, 30 mM EDTA). The terminated reactions are analyzed using 12 channel LabChip® 3000 microfluidic detection instrument (Caliper Life Sciences). […] Change in the relative fluorescence intensity of the substrate and product peaks is the parameter measured, reflecting enzyme activity. In the presence of an inhibitor, the ratio between product and substrate is altered: the signal of the product decreases, while the signal of the substrate increases.
Activity in each sample is determined as the product to sum ratio (PSR):P/(S+P), where P is the peak height of the product peptide and S is the peak height of the substrate peptide. For each compound, enzyme activity is measured at various concentrations (12 concentrations of compound spaced by 3× dilution intervals). Negative control samples (0%-inhibition in the absence of inhibitor) and positive control samples (100%-inhibition, in the presence of 20 mM EDTA) are assembled in replicates of four and are used to calculate %-inhibition values for each inhibitor at each concentration. Percent inhibition (Pinh) is determined using following equation: Pinh=(PSR0%−PSRinh)/(PSR0%−PSR100%)*100, where PSRinh is the product sum ratio in the presence of inhibitor, PSR0% is the average product sum ration in the absence of inhibitor and PSR100% is the average product sum ratio in 100%-inhibition control samples;
The IC50 values of inhibitors are determined by 4 parameter sigmoidal dose-response model fitting of the inhibition curves (Pinh versus inhibitor concentration) using XLfit 4 software.
IC50 values and curve fits were obtained using Prism (GraphPad Software).
The degree of Btk inhibition was determined using one of the methods outlined in Example 36a, 36b and 36c.

Sequence of Btk (Q06187 whole entry): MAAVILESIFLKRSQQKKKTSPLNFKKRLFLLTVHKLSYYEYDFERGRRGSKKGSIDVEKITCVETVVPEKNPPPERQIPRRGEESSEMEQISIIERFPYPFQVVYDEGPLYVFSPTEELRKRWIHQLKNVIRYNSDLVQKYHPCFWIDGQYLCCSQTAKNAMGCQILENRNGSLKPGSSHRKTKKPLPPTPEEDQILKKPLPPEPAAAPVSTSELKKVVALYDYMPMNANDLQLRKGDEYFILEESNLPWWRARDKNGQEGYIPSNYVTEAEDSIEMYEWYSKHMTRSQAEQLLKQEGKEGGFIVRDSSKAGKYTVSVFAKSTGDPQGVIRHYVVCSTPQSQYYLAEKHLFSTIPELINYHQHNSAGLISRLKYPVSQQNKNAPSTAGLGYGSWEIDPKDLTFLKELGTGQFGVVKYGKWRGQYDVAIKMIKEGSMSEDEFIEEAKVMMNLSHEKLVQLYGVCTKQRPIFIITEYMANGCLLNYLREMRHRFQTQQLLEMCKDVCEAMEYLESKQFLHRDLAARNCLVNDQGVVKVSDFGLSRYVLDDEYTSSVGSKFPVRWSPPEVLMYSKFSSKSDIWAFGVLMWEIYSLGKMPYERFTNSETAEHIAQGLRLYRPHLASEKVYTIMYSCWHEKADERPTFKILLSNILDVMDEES

| Compound | IC50 [nM] |
| --- | --- |
| CN(C)C/C=C/C(=O)N(C)c1cccc(-n2c(=O)n(-c3ccc(C(=O)Nc4cccc(-c5ncccn5)c4)cc3)c3c(N)ncnc32)c1 [Compound 12, (E)-4-(6-amino-9-(3-(4-(dimethylamino)-N-methylbut-2-enamido)phenyl)-8-oxo-8,9-dihydro-7H-purin-7-yl)-N-(3-(pyrimidin-2-yl)phenyl)benzamide] | < 100 |
| CN(C)C/C=C/C(=O)N(C)c1cccc(-n2c(=O)n(-c3ccc(C(=O)Nc4cncc(F)c4)cc3)c3c(N)ncnc32)c1 [Compound 15, (E)-4-(6-amino-9-(3-(4-(dimethylamino)-N-methylbut-2-enamido)phenyl)-8-oxo-8,9-dihydro-7H-purin-7-yl)-N-(5-fluoropyridin-3-yl)benzamide] | 100 to 1000 |
| CN(C)C/C=C/C(=O)N(C)c1cccc(-n2c(=O)n(-c3ccc(C(=O)c4ccccc4)cc3)c3c(N)ncnc32)c1 [Compound 26, (E)-N-(3-(6-amino-7-(4-benzoylphenyl)-8-oxo-7H-purin-9(8H)-yl)phenyl)-4-(dimethylamino)-N-methylbut-2-enamide] | < 100 |
| CN(C)C/C=C/C(=O)N(C)c1cccc(-n2c(=O)n(-c3ccc(C(=O)Nc4cc(C(F)(F)F)ccn4)cc3)c3c(N)ncnc32)c1 [Compound 10, (E)-4-(6-amino-9-(3-(4-(dimethylamino)-N-methylbut-2-enamido)phenyl)-8-oxo-8,9-dihydro-7H-purin-7-yl)-N-(4-(trifluoromethyl)pyridin-2-yl)benzamide] | < 100 |
| CN(C(=O)C1(C#N)CC1)c1cccc(-n2c(=O)n(-c3ccc(Oc4ccccc4)cc3)c3c(N)ncnc32)c1 [Compound 34, N-(3-(6-amino-8-oxo-7-(4-phenoxyphenyl)-7H-purin-9(8H)-yl)phenyl)-1-cyano-N-methylcyclopropanecarboxamide] | 100 to 1000 |
| CN(C)C/C=C/C(=O)N(C)c1cccc(-n2c(=O)n(-c3ccc(C(=O)Nc4nc5c(s4)CCCC5)cc3)c3c(N)ncnc32)c1 [Compound 22, (E)-4-(6-amino-9-(3-(4-(dimethylamino)-N-methylbut-2-enamido)phenyl)-8-oxo-8,9-dihydro-7H-purin-7-yl)-N-(4,5,6,7-tetrahydrobenzo[d]thiazol-2-yl)benzamide] | < 100 |
| Cc1ccnc(NC(=O)c2ccc(-n3c(=O)n(-c4cccc(N(C)C(=O)/C=C/CN(C)C)c4)c4ncnc(N)c43)cc2)c1 [Compound 7, (E)-4-(6-amino-9-(3-(4-(dimethylamino)-N-methylbut-2-enamido)phenyl)-8-oxo-8,9-dihydro-7H-purin-7-yl)-N-(4-methylpyridin-2-yl)benzamide] | < 100 |
| CN(C)C/C=C/C(=O)N(C)c1cccc(-n2c(=O)n(-c3ccc(C(=O)Nc4ccccn4)cc3)c3c(N)ncnc32)c1 [Compound 6, (E)-4-(6-amino-9-(3-(4-(dimethylamino)-N-methylbut-2-enamido)phenyl)-8-oxo-8,9-dihydro-7H-purin-7-yl)-N-(pyridin-2-yl)benzamide] | < 100 |
| CN(C)C/C=C/C(=O)N(C)c1cccc(-n2c(=O)n(-c3ccc(C(=O)Nc4ccc(Cl)cn4)cc3)c3c(N)ncnc32)c1 [Compound 17, (E)-4-(6-amino-9-(3-(4-(dimethylamino)-N-methylbut-2-enamido)phenyl)-8-oxo-8,9-dihydro-7H-purin-7-yl)-N-(5-chloropyridin-2-yl)benzamide] | < 100 |
| CN(C(=O)/C=C/CN1CCOCC1)c1cccc(-n2c(=O)n(-c3ccc(Oc4ccccc4)cc3)c3c(N)ncnc32)c1 [Compound 51, (E)-N-(3-(6-amino-8-oxo-7-(4-phenoxyphenyl)-7H-purin-9(8H)-yl)phenyl)-N-methyl-4-morpholinobut-2-enamide] | < 100 |
| CN(C(=O)CC#N)c1cccc(-n2c(=O)n(-c3ccc(Oc4ccccc4)cc3)c3c(N)ncnc32)c1 [Compound 33, N-(3-(6-amino-8-oxo-7-(4-phenoxyphenyl)-7H-purin-9(8H)-yl)phenyl)-2-cyano-N-methylacetamide] | 100 to 1000 |
| CN(C)C/C=C/C(=O)N(C)c1cccc(-n2c(=O)n(-c3ccc(C(=O)Nc4nccs4)cc3)c3c(N)ncnc32)c1 [Compound 18, (E)-4-(6-amino-9-(3-(4-(dimethylamino)-N-methylbut-2-enamido)phenyl)-8-oxo-8,9-dihydro-7H-purin-7-yl)-N-(thiazol-2-yl)benzamide] | < 100 |
| C=CC(=O)N(C)c1cccc(-n2c(=O)n(-c3ccc(OC4CC4)cc3)c3c(N)ncnc32)c1 [Compound 30, N-(3-(6-amino-7-(4-cyclopropoxyphenyl)-8-oxo-7H-purin-9(8H)-yl)phenyl)-N-methylacrylamide] | < 100 |
| Cc1cnc(NC(=O)c2ccc(-n3c(=O)n(-c4cccc(N(C)C(=O)/C=C/CN(C)C)c4)c4ncnc(N)c43)cc2)s1 [Compound 19, (E)-4-(6-amino-9-(3-(4-(dimethylamino)-N-methylbut-2-enamido)phenyl)-8-oxo-8,9-dihydro-7H-purin-7-yl)-N-(5-methylthiazol-2-yl)benzamide] | < 100 |
| Cc1cc(NC(=O)c2ccc(-n3c(=O)n(-c4cccc(N(C)C(=O)/C=C/CN(C)C)c4)c4ncnc(N)c43)cc2)ncc1F [Compound 16, (E)-4-(6-amino-9-(3-(4-(dimethylamino)-N-methylbut-2-enamido)phenyl)-8-oxo-8,9-dihydro-7H-purin-7-yl)-N-(5-fluoro-4-methylpyridin-2-yl)benzamide] | < 100 |

Second part, the compound after the results:

| IC50 [nM] | Compound |
| --- | --- |
| < 100 | CN(C(=O)/C=C/CN(C)C1CC1)c1cccc(-n2c(=O)n(-c3ccc(Oc4ccccc4)cn3)c3c(N)ncnc32)c1 [Compound 58, (E)-N-(3-(6-amino-8-oxo-7-(5-phenoxypyridin-2-yl)-7H-purin-9(8H)-yl)phenyl)-4-(cyclopropyl(methyl)amino)-N-methylbut-2-enamide] |
| < 100 | CN(C(=O)/C=C/CN(C)C1CC1)c1cccc(-n2c(=O)n(-c3ncc(Oc4ccccc4)cn3)c3c(N)ncnc32)c1 [Compound 69, (E)-N-(3-(6-amino-8-oxo-7-(5-phenoxypyrimidin-2-yl)-7H-purin-9(8H)-yl)phenyl)-4-(cyclopropyl(methyl)amino)-N-methylbut-2-enamide] |
| < 100 | CN(C(=O)/C=C/CN(C)C1CC1)c1cccc(-n2c(=O)n(-c3ccc(Oc4ccccc4)nc3)c3c(N)ncnc32)c1 [Compound 49, (E)-N-(3-(6-amino-8-oxo-7-(6-phenoxypyridin-3-yl)-7H-purin-9(8H)-yl)phenyl)-4-(cyclopropyl(methyl)amino)-N-methylbut-2-enamide] |
| < 100 | CN(C(=O)/C=C/CN(C)C1CC1)c1cccc(-n2c(=O)n(-c3ccc(C(=O)c4ccccc4)cc3)c3c(N)ncnc32)c1 [Compound 27, (E)-N-(3-(6-amino-7-(4-benzoylphenyl)-8-oxo-7H-purin-9(8H)-yl)phenyl)-4-(cyclopropyl(methyl)amino)-N-methylbut-2-enamide] |
| 100 to 1000 | CN(C)C/C=C/C(=O)N(C)c1cccc(-n2c(=O)n(-c3ccc(OC4CC4)cc3)c3c(N)ncnc32)c1 [Compound 28, (E)-N-(3-(6-amino-7-(4-cyclopropoxyphenyl)-8-oxo-7H-purin-9(8H)-yl)phenyl)-4-(dimethylamino)-N-methylbut-2-enamide] |
| < 100 | CN(C(=O)/C=C/CN(C)C1CC1)c1cccc(-n2c(=O)n(-c3ccc(Oc4ccccn4)cc3)c3c(N)ncnc32)c1 [Compound 63, (E)-N-(3-(6-amino-8-oxo-7-(4-(pyridin-2-yloxy)phenyl)-7H-purin-9(8H)-yl)phenyl)-4-(cyclopropyl(methyl)amino)-N-methylbut-2-enamide] |
